Read-outs that look alike come from different tables or passages of the source. Starred links: 1 amine or outer side, 2 acyl side, 3 side chain; linkers in the order of their positions; H or OH if unused. Positions of bridges follow the written chain, without caps; N, C: chain ends. Non-standard residues stand in square brackets, D forms with d. Residues, ends and D or L forms follow the SMILES beside them. *: point of attachment. Phe(3-NHCO(CH2)3SO2NH2) = N[C@@H](Cc1cccc(NC(=O)CCCS(N)(=O)=O)c1)C(=O)O; DOTA = O=C(O)CN1CCN(CC(=O)O)CCN(CC(=O)*)CCN(CC(=O)O)CC1; mXylylene = c1cc(C[*:1])cc(C[*:2])c1; X1 = O=C(CN1CCN([*:1])CC1)[*:2]
Columns and labels:
[1] = Toxicokinetics in the extended single-dose toxicity study in dogs; format: in vivo, dog; settings: for concentration at 5 min: plasma, iv, read-out: C5 min; for concentration at 5 min / AUClast / CL / Vss: mean n = 3; for t1/2: harmonic mean
Protocol: The following parameters and endpoints were evaluated: mortality, clinical observations, body weights, food consumption, body temperature, local reactions, ophthalmology, clinical pathology parameters (hematology, coagulation, clinical chemistry, and urinalysis), cardiovascular and respiratory safety pharmacology endpoints along with FOB evaluation, organ weights, and macroscopic and microscopic examinations, and TK parameters. The animals from subset A (3 males and 3 females per group) were sampled for toxicokinetics (TK) at: pre-dose, 5 min, 15 min, 30 min, 1 h, 2 h, 3 h and 6 h. Blood samples were collected in K2EDTA tubes. Plasma was prepared by centrifugation (2500 g for 10 minutes, +4° C.) within 1 hour after collection, and then frozen within 1 hour after centrifugation and stored at −80° C. […] Chromatographic separation was achieved using a Waters Acquity UPLC system with a Waters Acquity HSS T3 C18 2.1×50 mm, 1.8 μm column. Chromatography was conducted at 50° C. at a flow rate of 0.7 mL/min using a mobile phase consisting of A: 1% formic acid in acetonitrile, and B: 1% formic acid in water, according to the following linear gradient: 0 to 0.1 min: 90% B; 0.1 to 4.1 min: from 90% B to 74% B; 4.1 to 4.2 min: from 74% B to 5% B; 4.2 to 4.6 min: 5% B; 4.6 to 4.7 min: from 5% B to 90% B; 4.7-5.1 min; 90% B. Detection was performed using a Sciex AP16600 TOF mass spectrometer. Toxicokinetic parameters were estimated from concentration-time data using Phoenix pharmacokinetic software (version 6.4, Certara L.P.). A non-compartmental approach consistent with the bolus intravenous injection was used for parameter estimation.

[2] = Pharmacokinetics after single i.v. dose in healthy male beagle dogs; format: in vivo; settings: dog; for concentration at 24 h / dose excreted at 24 h: iv; for concentration at 24 h: 24 h urine, read-out: Mean amount of unchanged compound excreted in urine; for dose excreted at 24 h: urine, read-out: Dose excreted unchanged in urine
Protocol: The pharmacokinetics of DPI-4452 after a single intravenous (i.v.) dose was investigated in healthy dogs. […] Plasma and urine samples collected after dosing were analyzed using a LC-HRMS (liquid chromatography coupled with high-resolution mass spectrometry) assay method. Concentration values were used for pharmacokinetic calculations.
DPI 4452 was formulated in 0.1 M HEPES pH 7.0 at the final concentrations of 0.05 and 0.4 mg/mL for dosing at 0.1 and 0.8 mg/kg, respectively. Male beagle dogs (3 animals per dose level; overall 8.9 to 12.4 kg body weight) were administered intravenously (bolus) in a 2 mL/kg dosing volume. Blood samples were collected in K2EDTA tubes at 5 min, 15 min, 30 min, 1 h, 2 h, 4 h, 6 h, 24 h, and urine was collected over 24 hours post dose. The blood samples were kept on wet ice until plasma separation by centrifugation within 60 min after sampling. The plasma samples were transferred into plastic tubes, frozen and stored at −80° C. until analysis.
Plasma and urine samples were analyzed by LC-HRMS after solid phase extraction, using DPI-4501 as internal standard. Chromatographic separation was run on a Waters Acquity HSS T3 C18 2.1×50 mm, 1.8 μm column. Detection was achieved on a Sciex AP16600 TOF mass spectrometer. The lower limit of quantification was 2.00 ng/mL in urine and plasma.
The NCA pharmacokinetic analysis of plasma concentration data was conducted using Phoenix WinNonlin 6.3 software. Nominal doses were used for all animals. The terminal phase half-life (T1/2) was calculated by least-squares regression analysis of the terminal linear part of the log concentration-time curve. The area under the plasma concentration-time curve (AUC) was determined with the linear trapezoidal rule for increasing values and log trapezoidal rule for decreasing values up to the last measurable concentration.

[3] = Cardiovascular and respiratory safety pharmacology (jacketed external telemetry) in dogs; format: in vivo; settings: dog, any dose or timepoint
Source text: The test item treatment led to unaffected body weights, weight gains, and food intake. Likewise, no treatment-related abnormalities were reported during ophthalmic examinations, urinalysis, blood biochemistry, coagulation, and hematology investigations. There were no related organ weight changes and macroscopic and microscopic observations at early and late necropsies. Jacketed external telemetry was used to evaluate the potential cardiovascular and respiratory effects in the Subset B. Cardiorespiratory telemetry recordings were performed during the pre-test, Day 1 and 14. […] Arterial blood pressure parameters (systolic and diastolic blood pressure and mean arterial pressure) were measured continuously during consecutive 30-minute periods at pre-dose and for up to 6 h after dosing and over consecutive 60-minute periods up to 24 h after dosing. The respiratory rate was monitored on the pre-test, Day 1 and Day 14 at 0.5, 1, 2, 3, 4, 6, 8, 12, 16, 20, and 24 h. […] The potential effects on central nervous system parameters were evaluated under restrained and non-restrained conditions using a FOB in Subset A. Neurologic, autonomic, and behavioral investigations were performed in the pre-test, pre-dose, and 1 hour after dosing on Day 1.

[4] = female beagle dogs, single i.v. bolus 16 μg/kg
[5] = female beagle dogs, single i.v. bolus 80 μg/kg
[6] = female beagle dogs, single i.v. bolus 400 μg/kg
[7] = male beagle dogs, single i.v. bolus 16 μg/kg
[8] = male beagle dogs, single i.v. bolus 80 μg/kg
[9] = male beagle dogs, single i.v. bolus 400 μg/kg

For CC(C)C[C@@H]1NC(=O)[C@H](Cc2cccc(NC(=O)CCCS(N)(=O)=O)c2)NC(=O)[C@H](CC(=O)O)NC(=O)[C@H]2CCCN2C(=O)[C@H](CCC(=O)O)NC(=O)[C@@H](NC(=O)[C@H](CCC(N)=O)NC(=O)CN2CCN(C(=O)CN3CCN(CC(=O)O)CCN(CC(=O)O)CCN(CC(=O)O)CC3)CC2)CSCc2cccc(c2)CSC[C@@H](C(N)=O)NC(=O)[C@H](CO)NC(=O)[C@H](Cc2c[nH]c3ccccc23)NC(=O)[C@H]([C@@H](C)O)NC1=O [DPI-4452, DOTA-PPAc-Gln-[Cys(3MeBn)-Glu-pro-Asp-Af3(Cpsu)-Leu-Thr-Trp-Ser-Cys]-NH2] ({DOTA}-[X1]QCE[dP]D[Phe(3-NHCO(CH2)3SO2NH2)]LTWSC-NH2; linker 3-12 via mXylylene), the “Exposure difference between male and female dogs” value ([1]; all dose levels) was “No appreciable difference”, the “Mean AUCtlast at the NOAEL, females” value ([1]; dog, 400 μg/kg i.v.) was 771 ng·h/mL and the “Mean AUCtlast at the NOAEL, males” value ([1]; dog, 400 μg/kg i.v.) was 854 ng·h/mL. It also gave a concentration at 5 min ([1]; dog, 0.08 mg/kg, female beagle dogs, single i.v. bolus 80 μg/kg) of 346 ng/mL, a concentration at 5 min ([1]; dog, 0.08 mg/kg, male beagle dogs, single i.v. bolus 80 μg/kg) of 332 ng/mL and a concentration at 5 min ([1]; dog, 0.4 mg/kg, female beagle dogs, single i.v. bolus 400 μg/kg) of 1760 ng/mL. For the same compound, the concentration at 5 min ([1]; dog, 0.4 mg/kg, male beagle dogs, single i.v. bolus 400 μg/kg) was 1840 ng/mL, the concentration at 5 min ([1]; dog, […], female beagle dogs, single i.v. bolus 16 μg/kg) was 37.7 ng/mL and the concentration at 5 min ([1]; dog, […], male beagle dogs, single i.v. bolus 16 μg/kg) was 43.5 ng/mL. It also gave a t1/2 [1, 4] of 14.3 min, an AUClast [1, 4] of 12.4 ng·h/mL and a CL [1, 4] of 21.2 mL/min/kg. The Vss [1, 4] was 0.30 L/kg, the t1/2 [1, 5] was 23.2 min and the AUClast [1, 5] was 144 ng·h/mL. The CL [1, 5] was 9.27 mL/min/kg, the Vss [1, 5] was 0.21 L/kg and the t1/2 [1, 6] was 21.8 min. For the same compound, the CL [1, 6] was 8.63 mL/min/kg, the Vss [1, 6] was 0.19 L/kg and the t1/2 [1, 7] was 15.5 min. It also gave an AUClast [1, 7] of 14.0 ng·h/mL, a CL [1, 7] of 18.3 mL/min/kg and a Vss [1, 7] of 0.26 L/kg. For the same compound, the t1/2 [1, 8] was 21.7 min, the AUClast [1, 8] was 132 ng·h/mL and the CL [1, 8] was 10.1 mL/min/kg. It also gave a Vss [1, 8] of 0.21 L/kg, a t1/2 [1, 9] of 23.7 min and a CL [1, 9] of 7.88 mL/min/kg. For the same compound, the Vss [1, 9] was 0.19 L/kg, the “Time up to which plasma concentration was quantifiable” value ([2]; i.v. 0.1 mg/kg) was “up to 2 h” and the “Time up to which plasma concentration was quantifiable” value ([2]; i.v. 0.8 mg/kg) was no more than 4 h. The concentration at 24 h ([2]; i.v. 0.1 mg/kg) was 26.8 ng/mL, the concentration at 24 h ([2]; i.v. 0.8 mg/kg) was 191 ng/mL and the dose excreted at 24 h ([2]; i.v. 0.1 mg/kg) was 0.29%. For the same compound, the dose excreted at 24 h ([2]; i.v. 0.8 mg/kg) was 0.14% and the “Cardiovascular or respiratory parameters (heart rate, arterial blood pressure, ECG, respiratory rate)” value [3] was “no related effect on cardiovascular or respiratory parameters”.
